From patent US9890176B2, “Mannose derivatives for treating bacterial infections” (Vertex Pharmaceuticals Incorporated, priority 2013, dated 2018)

System: bacterial strain LF82 binding to the glycoprotein BSA-(Mannose)3
Assay: Bacterial Binding Assay (BBA)
Type: cell-based, Escherichia coli
Conditions: read-out: Bacterial Binding Assay IC50
Source text: The purpose of the Bacterial Binding Assay (BBA) is to determine the inhibition activity of selective FimH antagonists on the bacterial strain LF82 binding to the glycoprotein BSA-(Mannose)3.
Below is a list of the Materials used to run the BBA are described below. • 1. LB broth: Supplier: Gibco, #10855 • 2. D-PBS: Supplier: Wisent, #311-425-CL • 3. LB agar plates • 4. 96-well black plate (high binding): Supplier: Costar, #3925 • 5. TopSeal™-A adhesive sealing films; Supplier PerkinElmer, #6005185 • 6. Carbonate-bicarbonate buffer pH 9.6 tablets, Supplier: Medicago, #09-8922-24 • 7. Water, Supplier: Gibco, #15230-162 • 8. Bovine serum albumin (BSA): Supplier: Sigma, #A-7888 • 9. (Man)-3-BSA (α1-3, α1-6 Mannotriose-BSA, 1 mg), V-Labs, #NGP1336, lot#HGDX37-169-1 • 10. Tween 20: Supplier: Sigma, #P9416 • 11. Bright-Glo Luciferase Assay System: Supplier: Promega, #E2610 • 12. LF82/Luciferase strain: Invasive ability of an Escherichia coli strain isolated from the ileal mucosa of a patient with Crohn's disease. Boudeau J, Glasser A L, Masseret E, Joly B, Darfeuille-Michaud A, Infect Immun. 1999, 67(9), 4499-509
Solutions and buffers used to run the BBA are described below. • 1. 0.04M carbonate-bicarbonate buffer (coating buffer) • 2. […] 1 mg of (Man)-3-BSA in 25 mL of water. • 3. 4000 ng/mL BSA • 4. 40 ng/mL BSA • 5. 1 μg/mL BSA-(Man)3: 150 μL of 40 ng/mL BSA-(Man)3+5.85 mL of 40 ng/mL BSA • 6. 0.5 μg/mL BSA-(Man)3 in 0.02M carbonate-bicarbonate buffer. • 7. 20 ng/mL BSA in 0.02M carbonate-bicarbonate buffer • 8. Blocking buffer (2% BSA/DPBS): 1 g of BSA in 50 mL D-PBS • 9. 2× binding buffer (0.2% BSA/D-PBS): 5 mL of blocking buffer+45 mL D-PBS. • 10. Washing buffer (D-PBS/0.01% Tween 20): 10 μL of Tween 20 in 100 mL D-PBS. • 11. 1× Bright-Glo Luciferase substrate:Dilute 1:1 the Bright-Glo Luciferase Assay System with D-PBS The experimental protocol to run the BBA is described below.
Overnight culture of LF82/Luciferase strain: Into two Falcon 50 mL tubes, add 20 mL of LB+20 μL of 50 mg/mL Kanamycin and inoculate with a loop from glycerol stock of the LF82/Luciferase strain. Incubate overnight at 37° C. with no shaking.
Glycoprotein coating of 96-well plates: Add 100 μL/well of 0.5-2 μg/mL BSA-(Man)3. 20 μg/mL BSA is used as the control background. Seal plate using an adhesive sealing film and incubate overnight at room temperature. Wash the 96-well plate three times with 150 μL/well of D-PBS, add 170 μL/well of blocking solution and incubate 45 min (minimum) at room temperature.
Preparation of bacterial suspension: Mix the two cultures tubes (40 mL) and perform a 1:10 dilution in LB (900 μl LB+100 μl culture. Measure optical density (OD) of the bacterial cultures. OD1 ˜5×10^8 cells/mL. Centrifuge LF82 culture for 20 min at 3500 rpm at room temperature. Re-suspend bacterial pellet in D-PBS and centrifuge again for 20 min at 3500 rpm. Re-suspend bacterial pellet in D-PBS to obtain a bacterial concentration of 2×10^9 bacteria/mL. Dilute 1/10 in D-PBS to obtain a final bacterial concentration of 2×10^8 bacteria/mL (=107 bacteria/50 μL). Perform 1/10 serial dilutions in LB of each bacterial suspension, plate 10 μL of dilutions on LB agar plates (final dilutions of 10^−7) and incubate overnight at 37° C. and count CFUs to determine the actual bacteria density in the assay.
Bacterial binding assay: Add 147 μL 2× binding buffer to compound plate (containing 3 μL of compound). After blocking step is performed (at least 45 min), wash plates three times with 200 μL/well of D-PBS. With a 100 μL multichannel manual pipettor, add 50 μL/well of compound diluted in 2× binding buffer. With a 100 μL multichannel manual pipettor, add 50 μL/well of bacterial suspension. Agitate at slow speed for 1 min and incubate 40-75 min at room temperature. Wash 5 times with 150 μL/well of washing buffer and then once with D-PBS. Add 100 μL/well of 1× Bright-Glo Luciferase substrate. […]

| SMILES | IC50 |
| --- | --- |
| C[C@@]1(O)[C@@H](Oc2ccc(-c3ccc(O[C@H]4O[C@H](CO)[C@@H](O)[C@H](O)[C@]4(C)O)c(OC(F)(F)F)c3)cc2OC(F)(F)F)O[C@H](CO)[C@@H](O)[C@@H]1O [Example 114, (2R,3S,4S,5S,6R)-6-(hydroxymethyl)-3-methyl-2-[2-(trifluoromethoxy)-4-[3-(trifluoromethoxy)-4-[(2R,3S,4S,5S,6R)-3,4,5-trihydroxy-6-(hydroxymethyl)-3-methyl-tetrahydropyran-2-yl]oxy-phenyl]phenoxy]tetrahydropyran-3,4,5-triol] | 1 ± 1 nM |
| Cc1cc(-c2ccc(F)c(F)c2)ccc1O[C@H]1O[C@H](CO)[C@@H](O)[C@H](O)[C@]1(C)O [Compound 88] | 2950 ± 150 nM |
| CC[C@H](O)[C@H]1O[C@H](Oc2ccc(-c3cccc(C(=O)NC)c3)cc2C)[C@@H](O)[C@@H](O)[C@@H]1O [Compound 31] | > 10000 nM |
| Cc1cc(-c2cccc(C(=O)NCCN(C)C)c2)ccc1O[C@H]1O[C@H](CO)[C@@H](O)[C@H](O)[C@]1(C)O [Compound 67] | 15 ± 6 nM |
| OC[C@H]1O[C@@]2(CCc3cc(-c4ccc5c(c4)CC[C@]4(O5)O[C@H](CO)[C@@H](O)[C@H](O)[C@@H]4O)ccc3O2)[C@@H](O)[C@@H](O)[C@@H]1O [Example 126, (2R,3′S,4′S,5′S,6′R)-6′-(hydroxymethyl)-6-[(2R,3′S,4′S,5′S,6′R)-3′,4′,5′-trihydroxy-6′-(hydroxymethyl)spiro[chromane-2,2′-tetrahydropyran]-6-yl]spiro[chromane-2,2′-tetrahydropyran]-3′,4′,5′-triol] | 8 nM |
| Cc1cc(-c2cccc(S(=O)(=O)NC(C)(C)C)c2)ccc1O[C@H]1O[C@H](CO)[C@@H](O)[C@H](O)[C@]1(C)O [Compound 86] | 26 ± 8 nM |
| Cc1cc(-c2cccc(C(=O)N[C@H]3[C@H](O)[C@@H](CO)OC(O)[C@@H]3O)c2)ccc1O[C@H]1O[C@H](CO)[C@@H](O)[C@H](O)[C@]1(C)O (stereo partly shown) [Compound 65] | 20 ± 8 nM |
| Cc1cc(-c2cc(F)cc(C(=O)N3CCOCC3)c2)ccc1O[C@H]1O[C@H](CO)[C@@H](O)[C@H](O)[C@]1(C)O [Compound 103] | 18 ± 8 nM |
| CNC(=O)c1cccc(-c2ccc3c(c2)CC[C@]2(O3)O[C@H](CO)[C@@H](O)[C@H](O)[C@@H]2O)c1 [compound 33] | 27 ± 8 nM |
| CNC(=O)c1cccc(-c2ccc(O[C@H]3O[C@](C)(CO)[C@@H](O)[C@H](O)[C@@H]3O)c(C)c2)c1 [compound 26] | 2370 ± 544 nM |
| Cc1cc(-c2ccc(F)c(C(=O)N3CCOCC3)c2)ccc1O[C@H]1O[C@H](CO)[C@@H](O)[C@H](O)[C@]1(C)O [Compound 102] | 24 ± 5 nM |
| Cc1cc(-c2cccc(C(=O)NC[C@H]3OC(O)[C@H](O)[C@@H](O)[C@@H]3O)c2)ccc1O[C@H]1O[C@H](CO)[C@@H](O)[C@H](O)[C@]1(C)O (stereo partly shown) [Compound 64] | 20 ± 0.5 nM |
| Cc1cc(-c2cc(Cl)ccc2F)ccc1O[C@H]1O[C@H](CO)[C@@H](O)[C@H](O)[C@]1(C)O [Compound 77] | 150 nM |
| CNC(=O)c1cccc(-c2ccc(O[C@H]3O[C@H](CO)[C@@H](O)[C@H](O)[C@@]3(O)CNC(C)=O)c(C)c2)c1 [Compound 52] | 48 ± 10 nM |
| COc1c(F)cc(-c2ccc(O[C@H]3O[C@H](CO)[C@@H](O)[C@H](O)[C@]3(C)O)c(C)c2)cc1F [Compound 98] | 16 ± 7 nM |
| CNC(=O)c1cccc(-c2ccc(O[C@H]3O[C@H](CO)[C@@H](O)[C@](C)(O)[C@@H]3O)c(C)c2)c1 [compound 25] | 68 ± 18 nM |
| Cc1cc(-c2cccc(C(=O)NC(CO)(CO)CO)c2)ccc1O[C@H]1O[C@H](CO)[C@@H](O)[C@H](O)[C@]1(C)O [Compound 60] | 16 ± 0.5 nM |
| Cc1cc(-c2cccc(C(=O)O)c2)ccc1O[C@H]1O[C@H](CO)[C@@H](O)[C@H](O)[C@]1(C)O [Compound 21] | 112 ± 37 nM |
| Cc1cc(-c2ccc(F)cc2F)ccc1O[C@H]1O[C@H](CO)[C@@H](O)[C@H](O)[C@]1(C)O [Compound 75] | 38 ± 18 nM |
